Like-named read-outs stand apart in the source and are kept apart here. One block for each compound: values may come before it. Starred links: 1 amine or outer side, 2 acyl side, 3 side chain; linkers in the order of their positions; H or OH if unused. Non-standard residues stand in square brackets, D forms with d. Residues, ends and D or L forms follow the SMILES beside them. *: point of attachment. X5 = O=C(O)CN1CCN(CC(=O)O)CCN([C@@H](CCC(=O)*)C(=O)O)CCN(CC(=O)O)CC1; X2 = O=C(O)CN1CCN(CC(=O)O)CCN([C@H](CCC(=O)*)C(=O)O)CCN(CC(=O)O)CC1; Benzoyl(4-SiFtBu2) = CC(C)(C)[Si](F)(c1ccc(C(=O)*)cc1)C(C)(C)C; DOTA = O=C(O)CN1CCN(CC(=O)O)CCN(CC(=O)*)CCN(CC(=O)O)CC1; NODAGA = O=C(O)CN1CCN(CC(=O)O)CCN(C(CCC(=O)*)C(=O)O)CC1; NOTA = O=C(O)CN1CCN(CC(=O)O)CCN(CC(=O)*)CC1; d(γGlu) = O=C(O)[C@@H](CCC(=O)[*:2])N[*:1]; Bip = N[C@@H](Cc1ccc(-c2ccccc2)cc1)C(=O)O; 1Nal = N[C@@H](Cc1cccc2ccccc12)C(=O)O; 2Nal = N[C@@H](Cc1ccc2ccccc2c1)C(=O)O; PEG5 = NCCOCCOCCOCCOCCOCCC(=O)O; NMeNle = CCCC[C@H](NC)C(=O)O; PEG4 = NCCOCCOCCOCCOCCC(=O)O; Nle = CCCC[C@H](N)C(=O)O; Dap = NC[C@H](N)C(=O)O
Target: T1, CCK-2R (Rattus norvegicus, UniProt P30553)
T1 construct: The CCK-2R expressing rat pancreatic tumor cells AR4-2J; host or cells: AR4-2J rat pancreatic tumor cells
T1 sequence (P30553 1-452): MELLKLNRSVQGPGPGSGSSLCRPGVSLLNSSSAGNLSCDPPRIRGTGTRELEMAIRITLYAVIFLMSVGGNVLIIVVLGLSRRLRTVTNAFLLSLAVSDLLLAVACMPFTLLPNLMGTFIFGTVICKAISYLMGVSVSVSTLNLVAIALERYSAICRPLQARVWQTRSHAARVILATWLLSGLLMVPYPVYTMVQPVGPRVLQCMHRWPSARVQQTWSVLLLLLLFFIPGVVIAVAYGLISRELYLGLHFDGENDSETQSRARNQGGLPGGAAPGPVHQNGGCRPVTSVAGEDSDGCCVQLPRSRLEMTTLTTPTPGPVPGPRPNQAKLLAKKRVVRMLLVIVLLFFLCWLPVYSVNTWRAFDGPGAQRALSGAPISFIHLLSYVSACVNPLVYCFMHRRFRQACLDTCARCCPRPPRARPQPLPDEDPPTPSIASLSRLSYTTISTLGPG
Assay: Determination of IC50: CCK-2R affinity on AR4-2J cells, competition with [^177Lu]Lu-DOTA-PP-F11N
Format: binding
Description: AR4-2J cells were harvested 24 ± 2 h before the experiment and seeded in 24-well plates (2.0 × 10^5 cells in 1 mL/well). After removal of the nutrient medium (RPMI 1640, 5 mM L-Gln, 5 mL non-essential amino acids (100×), 10% FCS), the cells were washed once with 500 µL PBS. Thereafter, 200 µL nutrient medium (5% BSA, v/v) were added. Next, 25 µL per well of solutions containing either nutrient medium (5% BSA, v/v) as control or the respective compound in increasing concentration (10^-10 - 10^-4 M), were added with subsequent addition of 25 µL [^177Lu]Lu-DOTA-PP-F11N (0.3 pmol/well).
All experiments were performed in triplicate for each concentration. After 3 h incubation at 37 °C, the experiment was terminated by removal of the medium and consecutive rinsing with 300 µL PBS. The media of both steps were combined in one fraction and represent the amount of free radiolabeled reference. Afterwards, the cells were lysed with 300 µL of 1 M NaOH for at least 15 min and united with the 300 µL NaOH of the following washing step. Quantification of bound and free radiolabeled reference was accomplished in a γ-counter. IC50 determination for each conjugate was repeated twice.

[1] = AR4-2J cells, ^natGa-labeled, read-out: IC50 [nM] (n = 3), ^natGa-labeled
[2] = AR4-2J cells, references ^natLu-labeled, other peptides without chelator, read-out: IC50 [nM] (n = 3)
[3] = AR4-2J cells, ^natLu-labeled, read-out: IC50 [nM] (n = 3), ^natLu-labeled

SMILES: CCCC[C@H](NC(=O)[C@H](Cc1c[nH]c2ccccc12)NC(=O)CNC(=O)[C@H](Cc1ccc(O)cc1)NC(=O)[C@H](C)NC(=O)CC[C@@H](N)C(=O)O)C(=O)N[C@@H](CC(=O)O)C(=O)N[C@@H](Cc1ccc(-c2ccccc2)cc1)C(N)=O [CCK-38, H-γ-glu-Ala-Tyr-Gly-Trp-Nle-Asp-Bip-NH2] ({d(γGlu)}-AYGW[Nle]D[Bip]-NH2)
IC50 [2]: > 1000 nM

SMILES: CCCC[C@H](NC(=O)[C@H](Cc1c[nH]c2ccccc12)NC(=O)CNC(=O)[C@H](Cc1ccc(O)cc1)NC(=O)[C@H](C)NC(=O)CC[C@@H](N)C(=O)O)C(=O)N[C@@H](CC(=O)O)C(=O)N[C@@H](CNC(=O)c1ccc([Si](F)(C(C)(C)C)C(C)(C)C)cc1)C(N)=O [CCK-48, H-γ-glu-Ala-Tyr-Gly-Trp-Nle-Asp-Dap(SiFA)-NH2] ({d(γGlu)}-AYGW[Nle]D[Dap](Benzoyl(4-SiFtBu2))-NH2)
IC50: > 10000 nM

SMILES: CSCC[C@H](NC(=O)[C@H](Cc1c[nH]c2ccccc12)NC(=O)CNC(=O)[C@H](Cc1ccc(O)cc1)NC(=O)[C@H](C)NC(=O)[C@@H](CCC(=O)O)NC(=O)[C@@H](CCC(=O)O)NC(=O)[C@@H](CCC(=O)O)NC(=O)[C@@H](CCC(=O)O)NC(=O)[C@@H](CCC(=O)O)NC(=O)[C@@H](CCC(=O)O)NC(=O)CN1CCN(CC(=O)O)CCN(CC(=O)O)CCN(CC(=O)O)CC1)C(=O)N[C@@H](CC(=O)O)C(=O)N[C@@H](Cc1ccccc1)C(N)=O [CP04, DOTA-glu^1-glu^2-glu^3-glu^4-glu^5-glu^6-Ala^7-Tyr^8-Gly^9-Trp^10-Met^11-Asp^12-Phe^13-NH2, reference compound]
IC50 [2]: 11.2 ± 0.2 nM

SMILES: CCCC[C@H](NC(=O)[C@H](Cc1c[nH]c2ccccc12)NC(=O)CNC(=O)[C@H](Cc1ccc(O)cc1)NC(=O)[C@H](C)NC(=O)[C@@H](CCC(=O)O)NC(=O)[C@@H](CCC(=O)O)NC(=O)[C@@H](CCC(=O)O)NC(=O)[C@@H](CCC(=O)O)NC(=O)[C@@H](CCC(=O)O)NC(=O)[C@@H](CCC(=O)O)NC(=O)CN1CCN(CC(=O)O)CCN(CC(=O)O)CCN(CC(=O)O)CC1)C(=O)N[C@@H](CC(=O)O)C(=O)N[C@@H](Cc1ccccc1)C(N)=O [DOTA-PP-F11N, DOTA-glu^1-glu^2-glu^3-glu^4-glu^5-glu^6-Ala^7-Tyr^8-Gly^9-Trp^10-Nle^11-Asp^12-Phe^13-NH2, reference compound]
IC50: 12.8 ± 2.8 nM

SMILES: CCCC[C@@H](C(=O)N[C@@H](CC(=O)O)C(=O)N[C@@H](Cc1ccc2ccccc2c1)C(N)=O)N(C)C(=O)[C@@H](N)Cc1c[nH]c2ccccc12 [H-Trp-(N-Me)Nle-Asp-2-Nal-NH2] (H-W[NMeNle]D[2Nal]-NH2)
IC50 [2]: 102 ± 9 nM

SMILES: CCCC[C@@H](C(=O)N[C@@H](CC(=O)O)C(=O)N[C@@H](Cc1ccccc1)C(N)=O)N(C)C(=O)[C@@H](N)Cc1c[nH]c2ccccc12 [H-Trp-(N-Me)Nle-Asp-Phe-NH2] (H-W[NMeNle]DF-NH2)
IC50 [2]: 4.5 ± 0.6 nM

SMILES: CCCC[C@@H](C(=O)N[C@@H](CC(=O)O)C(=O)N[C@@H](Cc1c[nH]c2ccccc12)C(N)=O)N(C)C(=O)[C@@H](N)Cc1c[nH]c2ccccc12 [H-Trp-(N-Me)Nle-Asp-Trp-NH2] (H-W[NMeNle]DW-NH2)
IC50 [2]: 18.8 ± 0.5 nM

SMILES: CCCC[C@@H](C(=O)N[C@@H](CC(=O)O)C(=O)N[C@@H](Cc1ccc(O)cc1)C(N)=O)N(C)C(=O)[C@@H](N)Cc1c[nH]c2ccccc12 [H-Trp-(N-Me)Nle-Asp-Tyr-NH2] (H-W[NMeNle]DY-NH2)
IC50 [2]: 5.7 ± 0.5 nM

SMILES: CCCC[C@H](NC(=O)[C@@H](N)Cc1c[nH]c2ccccc12)C(=O)N[C@@H](CC(=O)O)C(=O)N[C@@H](Cc1cccc2ccccc12)C(N)=O [H-Trp-Nle-Asp-1-Nal-NH2] (H-W[Nle]D[1Nal]-NH2)
IC50 [2]: 297 ± 16 nM

SMILES: CCCC[C@H](NC(=O)[C@@H](N)Cc1c[nH]c2ccccc12)C(=O)N[C@@H](CC(=O)O)C(=O)N[C@@H](Cc1ccccc1)C(N)=O [H-Trp-Nle-Asp-Phe-NH2] (H-W[Nle]DF-NH2)
IC50 [2]: 466 ± 88 nM

Now from value to compound:

IC50 [1]: 16 ± 2.1 nM
SMILES: CCCC[C@@H](C(=O)N[C@@H](CC(=O)O)C(=O)N[C@@H](Cc1cccc2ccccc12)C(N)=O)N(C)C(=O)[C@H](Cc1c[nH]c2ccccc12)NC(=O)CCOCCOCCOCCOCCNC(=O)CC[C@@H](NC(=O)CC[C@H](C(=O)O)N1CCN(CC(=O)O)CCN(CC(=O)O)CCN(CC(=O)O)CC1)C(=O)O [(R)-DOTAGA-CCK-66, (R)-DOTAGA-γ-glu-(PEG)3-Trp-(N-Me)Nle-Asp-1-Nal-NH2] ({X2-d(γGlu)-PEG4}-W[NMeNle]D[1Nal]-NH2)

IC50 [1]: 17.9 ± 2.7 nM
SMILES: CCCC[C@@H](C(=O)N[C@@H](CC(=O)O)C(=O)N[C@@H](Cc1cccc2ccccc12)C(N)=O)N(C)C(=O)[C@H](Cc1c[nH]c2ccccc12)NC(=O)CCOCCOCCOCCOCCNC(=O)CC[C@@H](NC(=O)CC[C@@H](C(=O)O)N1CCN(CC(=O)O)CCN(CC(=O)O)CCN(CC(=O)O)CC1)C(=O)O [(S)-DOTAGA-CCK-66, (S)-DOTAGA-γ-glu-(PEG)3-Trp-(N-Me)Nle-Asp-1-Nal-NH2] ({X5-d(γGlu)-PEG4}-W[NMeNle]D[1Nal]-NH2)

IC50 (text values without printed unit, ^natLu-labeled, read-out: IC50): 8.84 ± 1.25 nM
SMILES: CCCC[C@@H](C(=O)N[C@@H](CC(=O)O)C(=O)N[C@@H](Cc1cccc2ccccc12)C(N)=O)N(C)C(=O)[C@H](Cc1c[nH]c2ccccc12)NC(=O)CCOCCOCCOCCOCCOCCNC(=O)CN1CCN(CC(=O)O)CCN(CC(=O)O)CCN(CC(=O)O)CC1 [DOTA-CCK-50, DOTA-(PEG)4-Trp-(N-Me)Nle-Asp-1-Nal-NH2] ({DOTA-PEG5}-W[NMeNle]D[1Nal]-NH2)

IC50 [3]: 8.5 ± 1.2 nM
SMILES: CCCC[C@@H](C(=O)N[C@@H](CC(=O)O)C(=O)N[C@@H](Cc1cccc2ccccc12)C(N)=O)N(C)C(=O)[C@H](Cc1c[nH]c2ccccc12)NC(=O)CNC(=O)CNC(=O)CNC(=O)CNC(=O)CN1CCN(CC(=O)O)CCN(CC(=O)O)CCN(CC(=O)O)CC1 [DOTA-CCK-55, DOTA-(Gly)4-Trp-(N-Me)Nle-Asp-1-Nal-NH2] ({DOTA}-GGGGW[NMeNle]D[1Nal]-NH2)

IC50 [3]: 98.9 ± 8.4 nM
SMILES: CCCC[C@@H](C(=O)N[C@@H](CC(=O)O)C(=O)N[C@@H](Cc1cccc2ccccc12)C(N)=O)N(C)C(=O)[C@H](Cc1c[nH]c2ccccc12)NC(=O)CNC(=O)CN1CCN(CC(=O)O)CCN(CC(=O)O)CCN(CC(=O)O)CC1 [DOTA-CCK-58, DOTA-Gly-Trp-(N-Me)Nle-Asp-1-Nal-NH2] ({DOTA}-GW[NMeNle]D[1Nal]-NH2)

IC50 [3]: 9.7 ± 1.7 nM
SMILES: CCCC[C@@H](C(=O)N[C@@H](CC(=O)O)C(=O)N[C@@H](Cc1cccc2ccccc12)C(N)=O)N(C)C(=O)[C@H](Cc1c[nH]c2ccccc12)NC(=O)CNC(=O)CNC(=O)[C@H](C)NC(=O)CNC(=O)CN1CCN(CC(=O)O)CCN(CC(=O)O)CCN(CC(=O)O)CC1 [DOTA-CCK-61, DOTA-Gly-Ala-(Gly)2-Trp-(N-Me)Nle-Asp-1-Nal-NH2] ({DOTA}-GAGGW[NMeNle]D[1Nal]-NH2)

IC50 [2]: 4.9 ± 0.8 nM
SMILES: CCCC[C@@H](C(=O)N[C@@H](CC(=O)O)C(=O)N[C@@H](Cc1cccc2ccccc12)C(N)=O)N(C)C(=O)[C@H](Cc1c[nH]c2ccccc12)NC(=O)CNC(=O)[C@H](Cc1ccc(O)cc1)NC(=O)[C@H](C)NC(=O)CC[C@@H](NC(=O)CN1CCN(CC(=O)O)CCN(CC(=O)O)CCN(CC(=O)O)CC1)C(=O)O [DOTA-γ-MGS5, DOTA-γ-glu^6-Ala^7-Tyr^8-Gly^9-Trp^10-(N-Me)Nle^11-Asp^12-1-Nal^13-NH2, reference compound] ({DOTA-d(γGlu)}-AYGW[NMeNle]D[1Nal]-NH2)

IC50 [1]: 4.9 ± 0.7 nM
SMILES: CCCC[C@@H](C(=O)N[C@@H](CC(=O)O)C(=O)N[C@@H](Cc1cccc2ccccc12)C(N)=O)N(C)C(=O)[C@H](Cc1c[nH]c2ccccc12)NC(=O)CCOCCOCCOCCOCCNC(=O)CC[C@@H](NC(=O)CCC(C(=O)O)N1CCN(CC(=O)O)CCN(CC(=O)O)CC1)C(=O)O (stereo partly drawn) [NODAGA-CCK-66, NODAGA-γ-glu-(PEG)3-Trp-(N-Me)Nle-Asp-1-Nal-NH2] ({NODAGA-d(γGlu)-PEG4}-W[NMeNle]D[1Nal]-NH2)

IC50 (AR4-2J cells, [^19F]AlF-complexated, read-out: IC50 [nM] (n = 3), ^natAlF-labeled): 10.4 ± 0.9 nM
IC50 [1]: 9.7 ± 1 nM
SMILES: CCCC[C@@H](C(=O)N[C@@H](CC(=O)O)C(=O)N[C@@H](Cc1cccc2ccccc12)C(N)=O)N(C)C(=O)[C@H](Cc1c[nH]c2ccccc12)NC(=O)CCOCCOCCOCCOCCNC(=O)CC[C@@H](NC(=O)CN1CCN(CC(=O)O)CCN(CC(=O)O)CC1)C(=O)O [NOTA-CCK-66, NOTA-γ-glu-(PEG)3-Trp-(N-Me)Nle-Asp-1-Nal-NH2] ({NOTA-d(γGlu)-PEG4}-W[NMeNle]D[1Nal]-NH2)
